Laboratory results taken from PubChem BioAssay (NCI).
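1) Cells in 96-well plates. 2) Compound, 48 h, 5 concentrations. 3) Linear interpolation between surrounding doses. 4) Unreached endpoint = highest concentration. GI50 marks 50% less growth. TGI denotes the concentration required for complete inhibition of growth.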

Columns and labels:
Assay in all cases: growth of human tumour cells (NCI), 48 h
ACHN renal = tested on: ACHN renal
CCRF-CEM leukemia = tested on: CCRF-CEM leukemia
HT29 colon = tested on: HT29 colon
MCF7 breast = tested on: MCF7 breast
M14 melanoma = tested on: M14 melanoma
SK-MEL-5 melanoma = tested on: SK-MEL-5 melanoma
UACC-257 melanoma = tested on: UACC-257 melanoma
SK-MEL-2 melanoma = tested on: SK-MEL-2 melanoma
A549 NSCLC = tested on: A549 NSCLC
SK-MEL-28 melanoma = tested on: SK-MEL-28 melanoma
IGROV1 ovarian = tested on: IGROV1 ovarian
U251 CNS = tested on: U251 CNS
OVCAR-8 ovarian = tested on: OVCAR-8 ovarian
786-0 renal = tested on: 786-0 renal
SF-295 CNS = tested on: SF-295 CNS
SF-539 CNS = tested on: SF-539 CNS
NCI-H460 lung = tested on: NCI-H460 lung
HCT-116 colon = tested on: HCT-116 colon
TK-10 renal = tested on: TK-10 renal
A498 renal = tested on: A498 renal
HOP-62 NSCLC = tested on: HOP-62 NSCLC
SK-OV-3 ovarian = tested on: SK-OV-3 ovarian
UACC-62 melanoma = tested on: UACC-62 melanoma
SF-268 CNS = tested on: SF-268 CNS
BT-549 breast = tested on: BT-549 breast
NCI-H522 lung = tested on: NCI-H522 lung
OVCAR-4 ovarian = tested on: OVCAR-4 ovarian
MALME-3M melanoma = tested on: MALME-3M melanoma
EKVX NSCLC = tested on: EKVX NSCLC
HCT-15 colon = tested on: HCT-15 colon
MOLT-4 leukemia = tested on: MOLT-4 leukemia
RXF 393 renal = tested on: RXF 393 renal
RPMI-8226 leukemia = tested on: RPMI-8226 leukemia
NCI-H23 lung = tested on: NCI-H23 lung
CAKI-1 renal = tested on: CAKI-1 renal
HL-60(TB) leukemia = tested on: HL-60(TB) leukemia
OVCAR-5 ovarian = tested on: OVCAR-5 ovarian
MDA-MB-435 = tested on: MDA-MB-435
SNB-19 CNS = tested on: SNB-19 CNS
OVCAR-3 ovarian = tested on: OVCAR-3 ovarian
DU-145 prostate = tested on: DU-145 prostate
LOX IMVI melanoma = tested on: LOX IMVI melanoma
SN12C renal = tested on: SN12C renal
UO-31 renal = tested on: UO-31 renal
NCI-H226 lung = tested on: NCI-H226 lung
COLO 205 colon = tested on: COLO 205 colon
KM12 colon = tested on: KM12 colon
T-47D breast = tested on: T-47D breast
HS 578T breast = tested on: HS 578T breast
SNB-75 CNS = tested on: SNB-75 CNS
PC-3 prostate = tested on: PC-3 prostate
SR leukemia = tested on: SR leukemia
HCC-2998 colon = tested on: HCC-2998 colon
SW-620 colon = tested on: SW-620 colon
HOP-92 NSCLC = tested on: HOP-92 NSCLC
NCI/ADR-RES ovarian = tested on: NCI/ADR-RES ovarian
MDA-MB-231 breast = tested on: MDA-MB-231 breast

O=[N+]([O-])c1cc(F)c2cccnc2c1O
GI50 (ACHN renal): 6.06 µM | TGI (ACHN renal): 79.7 µM | GI50 (CCRF-CEM leukemia): 3.46 µM | TGI (CCRF-CEM leukemia): 26.7 µM | GI50 (HT29 colon): 4.55 µM | TGI (HT29 colon): 20.7 µM | GI50 (MCF7 breast): 17.4 µM | TGI (MCF7 breast): 74.9 µM | GI50 (M14 melanoma): 7.56 µM | TGI (M14 melanoma): 40.9 µM | GI50 (SK-MEL-5 melanoma): 16.5 µM | TGI (SK-MEL-5 melanoma): 73.7 µM | GI50 (UACC-257 melanoma): 15.5 µM | TGI (UACC-257 melanoma): 58.8 µM | GI50 (SK-MEL-2 melanoma): 10.1 µM | TGI (SK-MEL-2 melanoma): 94.4 µM | GI50 (A549 NSCLC): 6.94 µM | TGI (A549 NSCLC): > 100 µM | GI50 (SK-MEL-28 melanoma): 21.2 µM | TGI (SK-MEL-28 melanoma): > 100 µM | GI50 (IGROV1 ovarian): 2500 nM | TGI (IGROV1 ovarian): 14.7 µM | GI50 (U251 CNS): 4.9 µM | TGI (U251 CNS): 90.3 µM | GI50 (OVCAR-8 ovarian): 11.3 µM | TGI (OVCAR-8 ovarian): > 100 µM | GI50 (786-0 renal): 10.2 µM | TGI (786-0 renal): 94.6 µM | GI50 (SF-295 CNS): 3.77 µM | TGI (SF-295 CNS): 86.6 µM | GI50 (SF-539 CNS): 13.6 µM | TGI (SF-539 CNS): > 100 µM | GI50 (NCI-H460 lung): 3.83 µM | TGI (NCI-H460 lung): 30.5 µM | GI50 (HCT-116 colon): 6.93 µM | TGI (HCT-116 colon): > 100 µM | GI50 (TK-10 renal): 14.9 µM | TGI (TK-10 renal): > 100 µM | GI50 (A498 renal): 6.84 µM | TGI (A498 renal): 42.4 µM | GI50 (HOP-62 NSCLC): 13.6 µM | TGI (HOP-62 NSCLC): > 100 µM | GI50 (SK-OV-3 ovarian): 26.3 µM | TGI (SK-OV-3 ovarian): > 100 µM | GI50 (UACC-62 melanoma): 11 µM | TGI (UACC-62 melanoma): 55.6 µM | GI50 (SF-268 CNS): 6.21 µM | TGI (SF-268 CNS): > 100 µM | GI50 (BT-549 breast): 19 µM | TGI (BT-549 breast): > 100 µM | GI50 (NCI-H522 lung): 4.01 µM | TGI (NCI-H522 lung): 26 µM | GI50 (OVCAR-4 ovarian): 6.63 µM | TGI (OVCAR-4 ovarian): 65.5 µM | GI50 (MALME-3M melanoma): 3.89 µM | TGI (MALME-3M melanoma): 28.8 µM | GI50 (EKVX NSCLC): 22.9 µM | TGI (EKVX NSCLC): > 100 µM | GI50 (HCT-15 colon): 6.73 µM | TGI (HCT-15 colon): > 100 µM | GI50 (MOLT-4 leukemia): 2430 nM | TGI (MOLT-4 leukemia): 11 µM | GI50 (RXF 393 renal): 17.5 µM | TGI (RXF 393 renal): 76.3 µM | GI50 (RPMI-8226 leukemia): 4.05 µM | TGI (RPMI-8226 leukemia): 24.3 µM | GI50 (NCI-H23 lung): 7.73 µM | TGI (NCI-H23 lung): > 100 µM | GI50 (CAKI-1 renal): 3.82 µM | TGI (CAKI-1 renal): 25.8 µM | GI50 (HL-60(TB) leukemia): 2480 nM | TGI (HL-60(TB) leukemia): 8.12 µM | GI50 (OVCAR-5 ovarian): 35.8 µM | TGI (OVCAR-5 ovarian): > 100 µM | GI50 (MDA-MB-435): 15 µM | TGI (MDA-MB-435): > 100 µM | GI50 (SNB-19 CNS): 9.24 µM | TGI (SNB-19 CNS): > 100 µM | GI50 (OVCAR-3 ovarian): 3.93 µM | TGI (OVCAR-3 ovarian): > 100 µM | GI50 (DU-145 prostate): 6.28 µM | TGI (DU-145 prostate): > 100 µM | GI50 (LOX IMVI melanoma): 4.63 µM | TGI (LOX IMVI melanoma): > 100 µM | GI50 (SN12C renal): 22.1 µM | TGI (SN12C renal): > 100 µM | GI50 (UO-31 renal): 2340 nM | TGI (UO-31 renal): 18.2 µM | GI50 (NCI-H226 lung): 30.5 µM | TGI (NCI-H226 lung): > 100 µM | GI50 (COLO 205 colon): 16.2 µM | TGI (COLO 205 colon): 54.2 µM | GI50 (KM12 colon): 7.95 µM | TGI (KM12 colon): > 100 µM | GI50 (T-47D breast): 21.2 µM | TGI (T-47D breast): > 100 µM | GI50 (HS 578T breast): 35.8 µM | TGI (HS 578T breast): > 100 µM | GI50 (SNB-75 CNS): 4 µM | TGI (SNB-75 CNS): > 100 µM | GI50 (PC-3 prostate): 4.47 µM | TGI (PC-3 prostate): > 100 µM | GI50 (SR leukemia): 1960 nM | TGI (SR leukemia): 6.96 µM | GI50 (HCC-2998 colon): 10.6 µM | TGI (HCC-2998 colon): > 100 µM | GI50 (SW-620 colon): 3.44 µM | TGI (SW-620 colon): > 100 µM | GI50 (HOP-92 NSCLC): 2840 nM | TGI (HOP-92 NSCLC): 9.01 µM | GI50 (NCI/ADR-RES ovarian): 3.61 µM | TGI (NCI/ADR-RES ovarian): 45.3 µM | GI50 (MDA-MB-231 breast): 25.8 µM | TGI (MDA-MB-231 breast): > 100 µM
